Test systems include M14 melanoma; SR leukemia; UACC-62 melanoma; BT-549 breast; CAKI-1 renal; DU-145 prostate; RXF 393 renal; U251 CNS; NCI-H226 lung; ACHN renal.
Holding throughout (test): DTP human tumour cell line panel, 48 h

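Grown in 96-well plates, cells were treated for 48 hours with each compound at five concentrations. Insufficient inhibition: endpoint recorded as highest concentration tested. The concentration for 50% growth inhibition is given as GI50. TGI: concentration producing complete growth inhibition.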 Where only a bound is given, the exact number is not on record here.

A word on the GI50: it is the concentration at which growth is held to half of that of the control. The term TGI denotes the concentration giving total growth inhibition. Higher therefore signals lower sensitivity of the cells. `O=C(Nc1nc2ccc(OC(F)(F)F)cc2s1)c1ccc(F)cc1`: the GI50 in the assay with M14 melanoma is 4.4 µM; with SR leukemia it was 3.68 µM; with UACC-62 melanoma, 3.59 µM; in the assay on BT-549 breast it was 3.76 µM; in the assay on CAKI-1 renal it was 2.29 µM; with DU-145 prostate, 3.44 µM. Besides, the GI50 in the assay on RXF 393 renal is 2.68 µM; in the assay on U251 CNS, 3.98 µM; in the assay on NCI-H226 lung it was 2.81 µM; with ACHN renal, 2.4 µM. Besides, the TGI with M14 melanoma is greater than 100 µM; with SR leukemia it was 14.1 µM; in the assay on UACC-62 melanoma, 50.3 µM; with BT-549 breast it was 54.6 µM; with CAKI-1 renal it was 7.26 µM; in the assay with DU-145 prostate, greater than 100 µM. Moreover, the total growth inhibition concentration (TGI) in the assay on RXF 393 renal was 13.7 µM; with U251 CNS, greater than 100 µM; in the assay with NCI-H226 lung it was greater than 100 µM; with ACHN renal, 6.18 µM.
For `CN1CCC(=C(c2ccc(Cl)cc2)c2ccccn2)CC1`, the GI50 with M14 melanoma is 19.2 µM; in the assay with SR leukemia, greater than 100 µM; in the assay on UACC-62 melanoma, 33.3 µM; in the assay on BT-549 breast, 79.8 µM; in the assay on CAKI-1 renal it was greater than 100 µM; in the assay with DU-145 prostate, greater than 100 µM. In addition, the GI50 was 54.5 µM with RXF 393 renal, greater than 100 µM in the assay with U251 CNS, 90.2 µM in the assay with NCI-H226 lung and greater than 100 µM in the assay with ACHN renal. Further, the TGI was 38.7 µM in the assay with M14 melanoma; greater than 100 µM in the assay with SR leukemia; greater than 100 µM in the assay with UACC-62 melanoma; greater than 100 µM in the assay with BT-549 breast; greater than 100 µM in the assay on CAKI-1 renal; greater than 100 µM in the assay with DU-145 prostate. Moreover, the TGI in the assay on RXF 393 renal, in the assay with U251 CNS, in the assay with NCI-H226 lung and in the assay with ACHN renal was greater than 100 µM throughout.
In the case of `Cn1cc(Nc2nccc(-c3ccc4c(c3)CN(C3COC3)CC[C@H]4NC(=O)c3cn(C(C)(C)C)nn3)n2)cn1`, the GI50 with M14 melanoma was 36.6 µM; in the assay with SR leukemia, greater than 100 µM; in the assay on UACC-62 melanoma, 23.1 µM; in the assay on BT-549 breast, greater than 100 µM; with CAKI-1 renal it was 37.7 µM; with DU-145 prostate it was greater than 100 µM. Further, the GI50 in the assay with RXF 393 renal was 26.6 µM; in the assay on U251 CNS, greater than 100 µM; in the assay with NCI-H226 lung, 38.9 µM; with ACHN renal, 66.3 µM. Further, the concentration for total growth inhibition (TGI) with M14 melanoma, in the assay with SR leukemia, in the assay on UACC-62 melanoma, in the assay with BT-549 breast, in the assay on CAKI-1 renal and in the assay on DU-145 prostate was greater than 100 µM in each case. Also, the TGI in the assay with RXF 393 renal, in the assay on U251 CNS, in the assay with NCI-H226 lung and with ACHN renal was greater than 100 µM each time.
For the compound `Cc1ncnc2c1ccn2[C@@H]1C[C@H](Oc2cc(C(F)F)c(F)c3c2CNCC3)[C@@H](O)[C@H]1O`, the GI50 with M14 melanoma, in the assay with SR leukemia, in the assay with UACC-62 melanoma, with BT-549 breast, in the assay with CAKI-1 renal and in the assay on DU-145 prostate was greater than 100 µM throughout. Moreover, the GI50 in the assay with RXF 393 renal, with U251 CNS, with NCI-H226 lung and with ACHN renal was greater than 100 µM throughout. For the same compound, the TGI in the assay with M14 melanoma, in the assay on SR leukemia, in the assay on UACC-62 melanoma, in the assay with BT-549 breast, in the assay with CAKI-1 renal and with DU-145 prostate was greater than 100 µM in each case. Besides, the concentration for total growth inhibition (TGI) in the assay on RXF 393 renal, in the assay with U251 CNS, with NCI-H226 lung and in the assay with ACHN renal was greater than 100 µM in each case.
In the case of `CCOC(=O)C(Cc1ccccc1)n1c(O)c(/C=N/c2ncc(Cc3ccc(Cl)cc3Cl)s2)sc1=S` (stereo not given), the GI50 is 3.02 µM with M14 melanoma; 3.98 µM in the assay with SR leukemia; 1.63 µM in the assay with UACC-62 melanoma; 2.37 µM in the assay with BT-549 breast; 1.71 µM in the assay on CAKI-1 renal; 3.9 µM in the assay on DU-145 prostate. For the same compound, the GI50 was 2.56 µM in the assay on RXF 393 renal, 2.51 µM with U251 CNS, 3.29 µM in the assay on NCI-H226 lung and 2.92 µM in the assay on ACHN renal. Also, the concentration for total growth inhibition (TGI) in the assay on M14 melanoma was 16.7 µM; in the assay on SR leukemia, greater than 100 µM; in the assay on UACC-62 melanoma, 6.37 µM; in the assay on BT-549 breast it was 8.23 µM; in the assay with CAKI-1 renal, greater than 100 µM; in the assay on DU-145 prostate it was greater than 100 µM. Further, the concentration for total growth inhibition (TGI) in the assay with RXF 393 renal was 6.7 µM; in the assay with U251 CNS, 15 µM; in the assay with NCI-H226 lung, greater than 100 µM; in the assay on ACHN renal, greater than 100 µM.
In the case of `Cc1ccc(/C=C(/C#N)n2nnc3cccc(F)c32)cc1`, the concentration for 50% growth inhibition (GI50) with M14 melanoma was 0.287 µM; in the assay with SR leukemia, 0.122 µM; with UACC-62 melanoma, 0.32 µM; in the assay with BT-549 breast, 0.634 µM; in the assay with CAKI-1 renal, 0.327 µM; in the assay with DU-145 prostate it was 0.332 µM. Also, the GI50 was 0.201 µM in the assay with RXF 393 renal, 0.489 µM with U251 CNS, 1.76 µM in the assay on NCI-H226 lung and 0.579 µM in the assay with ACHN renal. Besides, the concentration for total growth inhibition (TGI) with M14 melanoma is 22.1 µM; in the assay on SR leukemia, greater than 35.5 µM; in the assay on UACC-62 melanoma, 11.1 µM; with BT-549 breast it was 8.99 µM; in the assay with CAKI-1 renal, 25.3 µM; in the assay on DU-145 prostate, 7.13 µM. The TGI in the assay with RXF 393 renal was found to be 0.563 µM; in the assay with U251 CNS, 14.4 µM; with NCI-H226 lung it was 8.31 µM; with ACHN renal, 4.46 µM.
For the compound `CCc1nc(N)nc(N)c1-c1ccc(N2CCNCC2)c([N+](=O)[O-])c1`, the TGI was 31.9 µM in the assay on M14 melanoma; greater than 100 µM in the assay on SR leukemia; greater than 100 µM in the assay with UACC-62 melanoma; greater than 100 µM with BT-549 breast; greater than 100 µM in the assay with CAKI-1 renal; greater than 100 µM in the assay on DU-145 prostate. In addition, the TGI in the assay on RXF 393 renal, in the assay on U251 CNS, in the assay on NCI-H226 lung and in the assay on ACHN renal was greater than 100 µM in each case.
